Laboratory results taken from publication PMC12366525, “Characterization of allosteric modulators that disrupt androgen receptor co-activator protein-protein interactions to alter transactivation–Drug leads for metastatic castration resistant prostate cancer” (SLAS discovery : advancing life sciences R & D, 2023).

Experiments:
AR-V7 = target: T1, AR-V7 (Homo sapiens, UniProt P10275); assay: UBE2C promoter driven luciferase reporter assay in PC3-AR-V7-GFP cells; format: cell-based; conditions: constitutive, 24 h; read-out: PC-3-ARV7-GFP UBE2C-Luc Reporter IC50
T1 construct: expressed in transfected cells; host or cells: PC3 cells stably expressing AR-V7-GFP
T1 sequence (P10275 1-644 isoform P10275-3): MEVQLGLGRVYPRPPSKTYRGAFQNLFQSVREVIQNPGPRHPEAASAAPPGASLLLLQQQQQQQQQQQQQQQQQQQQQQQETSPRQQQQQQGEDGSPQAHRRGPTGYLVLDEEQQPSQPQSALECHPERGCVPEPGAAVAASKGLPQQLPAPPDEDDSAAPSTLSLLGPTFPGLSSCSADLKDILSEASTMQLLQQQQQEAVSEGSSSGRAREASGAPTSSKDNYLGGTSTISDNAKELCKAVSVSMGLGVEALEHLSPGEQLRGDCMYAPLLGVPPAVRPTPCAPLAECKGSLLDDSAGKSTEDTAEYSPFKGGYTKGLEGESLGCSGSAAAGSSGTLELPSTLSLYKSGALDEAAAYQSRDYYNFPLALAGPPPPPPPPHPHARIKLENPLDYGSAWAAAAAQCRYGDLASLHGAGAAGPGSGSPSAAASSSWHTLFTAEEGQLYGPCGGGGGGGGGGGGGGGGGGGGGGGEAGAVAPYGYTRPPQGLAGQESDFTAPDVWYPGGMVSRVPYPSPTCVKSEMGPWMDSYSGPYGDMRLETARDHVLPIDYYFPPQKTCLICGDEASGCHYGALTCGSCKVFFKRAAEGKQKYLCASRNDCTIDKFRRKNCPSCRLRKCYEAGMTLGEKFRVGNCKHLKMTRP
Description: The pGL4.28-UBE2C 20bpX3 luciferase reporter plasmid was provided by Dr. Yan Dong from Tulane University. Fugene HD and the UBE2C-Luc plasmid (10 ng/well) were combined at a 3:1 (μL:μg) ratio, in Opti-MEM and incubated for 25 min at RT before being added to PC3-AR-V7-GFP cells that were suspended in RPMI 1640 (Gibco) media containing 1% L-glutamine (Invitrogen), and 10% fetal bovine serum (Gemini Bio-products). Bulk transfected PC3-AR-V7-GFP cells were seeded into white opaque 384-well assay plates (Greiner Bio-one, #781080) at a density of 3000 cell per well in a volume of 40 μL and incubated at 5% CO2, 37 °C, and 95% humidity for 24 h. After 24 h, 10 μL of compounds were transferred to assay wells and the plates were returned to the incubator for an additional 24 h before 25 μL of BrightGlo luciferase reagent (Promega) was added to the wells and the RLU’s were captured on a SpectraMax M5e plate reader (Molecular Devices LLC) as described previously.

AR-TIF2 PPI = target: T2, AR-TIF2 PPI (Homo sapiens, UniProt P10275); assay: AR-TIF2 PPI biosensor (PPIB) HCS assay, disruption of pre-formed AR-TIF2 PPI complexes; format: cell-based; conditions: U-2 OS cells, 25 nM DHT 90 min prior to compounds for 3 h
T2 construct: expressed in transfected cells; host or cells: U-2 OS osteosarcoma cells, co-infected with recombinant adenoviruses
T2 sequence (P10275 663-920 limits assumed): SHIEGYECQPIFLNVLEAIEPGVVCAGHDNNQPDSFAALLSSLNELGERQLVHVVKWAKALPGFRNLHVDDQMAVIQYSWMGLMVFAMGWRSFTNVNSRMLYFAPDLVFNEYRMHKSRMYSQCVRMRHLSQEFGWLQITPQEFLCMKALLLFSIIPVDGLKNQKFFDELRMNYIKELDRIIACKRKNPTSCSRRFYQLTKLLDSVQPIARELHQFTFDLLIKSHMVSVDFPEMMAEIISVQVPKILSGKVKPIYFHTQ
Description: Daughter plates containing 2 μL of the serially diluted compounds in DMSO were prepared and replicated from 384-well serial dilution master plates using a Janus MDT platform outfitted with a 384-well transfer head. Aluminum adhesive plate seals were applied, and plates were stored at −20 °C. For bioassay testing, daughter plates were withdrawn from −20 °C storage, thawed to ambient temperature, and centrifuged for 1 min at 100 × g, and plate seals were removed before 38 μL of serum-free media (SFM) was transferred into wells using a Matrix pipettor (ThermoFisher, Waltham, MA), to generate an intermediate stock concentration of validation compounds ranging from 0.977 to 500 μM (5.0% DMSO). Diluted compounds were mixed by repeated aspiration and dispensation using a 384-well P30 dispensing head on the Janus MDT platform and then, 5 μL of diluted compounds was transferred to assay plate wells to provide a final concentration range from 0.0977 to 50 μM (0.5% DMSO).
The AR-TIF2 PPIB HCS assay was performed in U-2 OS osteosarcoma cells as described previously. Briefly, U-2 OS cells were coinfected with recombinant adenovirus biosensor expression constructs and seeded at 2500 cells per well in 384-well collagen-coated microplates (Greiner BioOne #781956) and plates were incubated overnight at 37°C in 5% CO2 and 95% humidity. […] After the appropriate time, assay plates were fixed by transfer of 50 μL of pre-warmed (37°C) 7.4% formaldehyde and 2 μg/mL Hoechst 33342 in PBS and incubation at room temperature for 30 min. Liquid was aspirated, plates were washed twice with 85 μL PBS, leaving the final wash in the plate. Plates were sealed with adhesive aluminum plate seals, and fluorescent images of three fields of view were acquired in the DAPI (Hoechst stained nuclei), FITC (TIF2-GFP) and Texas Red (AR-RFP) channels on an ImageXpress Micro (IXM) automated HCS platform (Molecular Devices LLC, Sunnyvale, CA) using a 10X Plan Fluor 0.3 NA objective. Images were analyzed using the Translocation Enhanced (TE) image analysis module of the MetaXpress software as described previously.
In 384-well assays, DMSO minimum (n = 32) and maximum (n = 32) plate control wells were utilized to calculate signal-to-background ratios (S:B) and Z’-factor coefficient assay performance quality control statistics, and to normalize the signals of compound treated wells and to represent 0% and 100% respectively. For the 96-well AR-LBD H^3-DHT radioligand binding assay, eight minimum and maximum plate control wells were utilized to normalize the data. For the PC cell line growth inhibition assays we used the DMSO control data from the T0 and T72 assay plates to assess the dynamic range of the T0 to T72 cell growth, and to calculate S:B ratios and Z’-factor coefficient statistics for the assay signal window (T0 to T72). To normalize the 72 h compound exposure PC growth inhibition data, the signals from the compound treated wells were processed and expressed as% of the T72 DMSO plate controls. IC50 and GI50 values for each of the bioassays were calculated using Graph-Pad Prism 9 software to plot and fit data to curves using the Sigmoidal dose response variable slope equation Y = Bottom + [Top-Bottom]/ [1 + 10^^(LogEC50-X)*HillSlope].

Cc1ccccc1-c1cc(O)c2c(c1)CN(c1nc(C(N)=O)cs1)CCO2 [S1–1]
IC50 (AR-V7): 34.7 µM | IC50 (AR-TIF2 PPI): 26.6 µM

Cc1ccccc1-c1cc(O)c2c(c1)CN(c1nccs1)CCO2 [S1–3]
IC50 (AR-TIF2 PPI): 63.1 µM | IC50 (AR-TIF2 PPI; listed as S1-3): 63 µM

Cc1nsc(NC(=O)N2CCC(Sc3ccccc3C)CC2)n1 [S2–6]
IC50 (AR-V7): 14.5 µM | IC50 (AR-TIF2 PPI): 5.8 µM

Cc1c(-c2ccccc2F)[nH]c2ccc(CNC(=O)CCc3cn[nH]c3)cc12 [S3–11]
IC50 (AR-V7): 21 µM | IC50 (AR-TIF2 PPI): 29.1 µM

Cc1c(-c2ccccc2F)[nH]c2ccc(CNC(=O)CCc3cnccn3)cc12 [S3–12]
IC50 (AR-V7): 17.7 µM | IC50 (AR-TIF2 PPI): 26.7 µM

CC(=O)NCCC(=O)NCc1ccc2[nH]c(-c3ccccc3F)c(C)c2c1 [S3–13]
IC50 (AR-TIF2 PPI): 41.3 µM

Cc1c(-c2ccccc2F)[nH]c2ccc(CNC(=O)c3ccc(CO)o3)cc12 [S3–14]
IC50 (AR-V7): 46 µM | IC50 (AR-TIF2 PPI): 18 µM

Cc1c(-c2ccc(F)cc2)[nH]c2ccc(CNC(=O)c3ccc(CO)o3)cc12 [S3–15]
IC50 (AR-V7): 18.5 µM | IC50 (AR-TIF2 PPI): 26.2 µM
